Here are results for 1 molecule from US11965034B2, “Antifibrotic activity of CD47 blockade in the liver” (The Board of Trustees of the Leland Stanford Junior …, priority 2017, dated 2024).

In assay [1] the test system is c-Jun induced mice (bone marrow and skin fibrosis). As to the kind of experiment: Systemic c-Jun induced bone marrow and skin fibrosis in vivo. The arrangement: species or system mouse. The note with it: systemic c-Jun induction, drug i.p. The source says: Blockade of the VEGF and PI3K pathways reverse marrow and skin fibrosis in vivo. Encouraged by these findings, we sought to evaluate the efficacy of blocking the PI3K-AKT pathway in c-Jun mediated fibrosis in vivo. Wortmannin, a potent PI3K inhibitor, was systemically administered to mice for 14 days that were induced to express c-Jun two days prior to drug. […] Any effects on gastroesophageal or bladder were not assessed as the fibrosis in these organs takes longer to develop. Both Rosa26-rtTA control mice were treated with dox and c-Jun-inducible mice were treated with PBS. No fibrosis developed in either control condition in lung or other organs over the same time span. Thus, the PI3K and VEGFR pathways are critical mediators of c-Jun-induced fibrosis in mice and may be also involved in the development of human fibrosing conditions.
Tissue processing. Animals were sacrificed at times indicated based on an APLAC-approved protocol that includes assessment of morbidity by >10% loss of weight, scruffy appearance and lethargy. […] Images were analyzed in Adobe Photoshop (Adobe Systems, San Jose, CA). […] Flow cytometry was performed on a FACS Aria cytometer (BD Biosciences, San Jose, CA), at least 10,000 events were acquired, and data were analyzed using FlowJo software. […]

The test system of assay [2] is c-Jun-induced migration of bone marrow-derived stromal cells. In words: Transwell migration assay of c-Jun-induced bone marrow-derived stromal cells (in vitro inhibitory screen). The class given is cell-based, mouse. The conditions noted are these: bone marrow-derived stromal cells from c-Jun-inducible mice, dox induced. The source says:
Functional evaluation of signaling pathways mediating the fibrogenic response. We next wished to assess the functional relevance of the signaling pathway rewiring induced by transcriptional activation of c-Jun. To enable systematic pharmacological interrogation we sought to develop a c-Jun-dependent in vitro assay. We assessed two cell biological parameters in cultured bone marrow-derived stromal cells from c-Jun-inducible mice. First, we assessed cell growth and observed a shortening of the cell doubling time from about […] in control to about 2 days in c-Jun-induced fibroblasts (FIG. 6A). Second, we measured cell migration of bone marrow-derived stromal cells in a transwell migration assay as a functional readout of the c-Jun induction and observed a 100-fold increase in migration at 2 hours and a 1000-fold increase at 24 hours in c-Jun induced cells versus uninduced cells (FIG. 6B).
Given its much greater dynamic range, we then tested a series of small molecule inhibitors in the transwell migration assay. […]
Transwell migration and proliferation assays. For transwell migration assays Costar transwell chambers were used according to the manufacturer's directions and transmigrated adherent cells were fixed and stained and counted by microscopy after periods of 2 hrs and 24 hrs. […]

For the molecule `CCN(CC)CCCCNc1ncc2cc(-c3cc(OC)cc(OC)c3)c(NC(=O)NC(C)(C)C)nc2n1` [PD173074], in assay [1], the bone marrow fibrosis result is given as “significantly decreased”; the “skin fibrosis (dermal skin thickening and collagen deposition)” value was “but not skin fibrosis”. The c-Jun-induced migration result in assay [2] is given as “abolish”.
